Assay results as given in PubChem BioAssay (NCI).
Where “and” joins values, the source holds several entries; their conditions need not be identical. Equal entries are not always repeated.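 Following 48 hours of exposure in 96-well plates, responses at five concentrations were used to interpolate endpoints linearly. GI50: concentration for 50% inhibition of growth. TGI: concentration producing complete growth inhibition.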

Columns and labels:
Experiment in all cases: inhibition of tumour cell growth, NCI panel, 48 h
[1] = system: COLO 205 colon
[2] = system: HL-60(TB) leukemia
[3] = system: TK-10 renal
[4] = system: UACC-62 melanoma
[5] = system: HT29 colon
[6] = system: UO-31 renal
[7] = system: 786-0 renal
[8] = system: HCT-15 colon
[9] = system: SF-539 CNS
[10] = system: SK-OV-3 ovarian

Structure (SMILES) | GI50 [1] [µM] | TGI [1] [µM] | GI50 [2] | TGI [2] [µM] | GI50 [3] [µM] | TGI [3] [µM] | GI50 [4] | TGI [4] [µM] | GI50 [5] | TGI [5] [µM] | GI50 [6] | TGI [6] | GI50 [7] | TGI [7] | GI50 [8] | TGI [8] [µM] | GI50 [9] | TGI [9] [µM] | GI50 [10] [µM] | TGI [10] [µM]
CCCCCCCCCCSC(=N)N (tested in a mixture with another compound) | 1.86 | 3.78 | 1.85 µM | 4.19 | 1.95 | 4.19 | 1.95 µM | 3.96 | 1.78 µM | 4.34 | 3.02 µM | 13 µM | 1.91 µM | 4.54 µM | 2.12 µM | 5.06 | 10.9 µM | 23.8 | 11.8 | 24.8
Cc1ccc(NC2=C3CCCCC3OC2=O)cc1 (stereo not given) | 78.1 | > 100 | 55.6 µM | > 100 | > 100 | > 100 | 47 µM | > 100 | 79.8 µM | > 100 | 27.6 µM | > 100 µM | > 100 µM | > 100 µM | > 100 µM | > 100 | > 100 µM | > 100 | > 100 | > 100
COc1ccc(CN2C(=O)C(Cl)=C(Nc3cccc(C(F)(F)F)c3)C2=O)cc1 | 5.07 | 18.8 | 2.56 µM | 19.5 | 16.8 | 46.3 | 5.33 µM | 19.1 | 4.55 µM | 19.7 | 5.54 µM | 32 µM | 8.02 µM | 30.1 µM | 3.69 µM | 17.6 | 1.77 µM | 12 | 8.67 | 62.2
Nc1nc2[nH]cc(CCc3ccc(C(=O)N[C@@H](CCC(=O)O)C(=O)O)cc3)c2c(=O)[nH]1 | > 34.6 | > 100 | 0.684 µM | > 100 | – | > 100 | – | > 100 | 35 µM | > 100 | 0.19 µM | > 100 µM | 0.0611 µM | > 100 µM | – | > 100 | 0.0774 µM | – | – | > 100
O=C1c2c(F)c(F)c(F)c(F)c2C(=O)N1c1ccc(F)cc1F | 10.9 | 35.7 | 0.403 µM | 0.891 | 13.7 | > 51 | 4.11 µM | 14.3 | 7.36 µM | > 100 | 10.5 µM | > 48 µM | 11 µM | > 43.8 µM | 2.57 µM | 7.43 | 2.78 µM | 7.27 | 20.7 | 50.2
O=C1CSC(=S)N1/N=C/c1ccc(Cl)c([N+](=O)[O-])c1 | – | > 100 | – | 61 | – | > 100 | – | 64.8 | – | > 100 | – | 71 µM | – | > 100 µM | – | 42.1 | – | > 100 | – | > 100
Cc1ccc(S(=O)(=O)N2CCC2c2ccccc2)cc1 (stereo not given) | – | > 100 | – | 40.6 | – | > 100 | – | > 100 | – | > 100 | – | > 100 µM | – | > 100 µM | – | > 100 | – | > 100 | – | > 100
O=C(Nc1cccc(C(F)(F)F)c1)Nc1cccc(C(F)(F)F)c1 | 0.985 | 2.59 | 1.84 µM | 5.86 | 1.3 | 7.2 | 0.702 µM | 2.66 | 0.84 µM | 6.06 | 0.649 µM | 4.21 µM | 1.56 µM | 4.14 µM | 0.464 µM | 3.41 | 2.13 µM | 5.23 | 1.89 | 6.34
C[C@@]1(O)CC[C@]2(C)C3CCCC3[C@H]12 (stereo not given in full) | – | > 100 | – | > 100 | – | > 100 | – | > 100 | – | > 100 | – | > 100 µM | – | > 100 µM | – | > 100 | – | > 100 | – | > 100
COC(=O)/C=C/c1cc(OC(C)=O)c2c(c1)[C@@H](C(=O)OC)[C@H](c1ccc(OC(C)=O)c(OC(C)=O)c1)O2 | 3.57 | 24.7 | 0.0288 µM | 0.0934 | 2.58 | > 91.1 | 0.359 µM | 26 | 1.68 µM | > 58.7 | 0.131 µM | 38 µM | 0.0958 µM | > 100 µM | 0.0421 µM | > 100 | 0.0344 µM | 0.305 | 0.417 | 41.9
COC(=O)[C@]12CC[C@@H](C)[C@H](C)[C@@H]1C1=CC[C@@H]3[C@@]4(C)C[C@@H](O)[C@H](O)[C@@](C)(CO)[C@@H]4[C@H](O)C[C@@]3(C)[C@]1(C)CC2 | 14.8 | 31.2 | 9.1 µM | 30.3 | 16.8 | 31.5 | 10.1 µM | 23.6 | 17.1 µM | 36.3 | 6.3 µM | 29.8 µM | 11.5 µM | 31.6 µM | 12.5 µM | 28.4 | 14 µM | 29 | 19.4 | 33.5
CN1CCN(C(=O)COc2ccc(C34CC5CC(CC(C5)C3)C4)cc2)CC1 | 5.53 | 20.5 | 4.7 µM | 23.2 | 16.7 | 33.2 | 11 µM | 23.4 | 4.66 µM | 19.1 | 12.4 µM | 25 µM | 11.3 µM | 23.5 µM | 7.33 µM | 21 | 12.7 µM | 25.9 | 14 | 30.4
NC(N)=NS(=O)(=O)c1ccc(N=Nc2c(O)c(C(=O)O)cc3ccccc23)cc1 | – | > 100 | – | > 100 | – | > 100 | – | > 100 | – | > 100 | – | > 100 µM | – | > 100 µM | – | > 100 | – | > 100 | – | > 100
Br[Se]c1ccccn1 | – | 30.8 | – | 40.3 | – | 34.5 | – | 30.9 | – | 53.9 | – | 31.2 µM | – | 32.6 µM | – | 38.4 | – | 30 | – | 34.8
O=S1C(=c2ccc(=C3Sc4ccccc4S3)cc2)Sc2ccccc21 (stereo not given) | – | > 100 | – | > 100 | – | > 100 | – | 35.2 | – | 49.2 | – | 35.2 µM | – | 30.8 µM | – | 28.9 | – | 30.5 | – | 37
Cc1[cH-]c(=O)n(-c2ccccc2)n1.[Au+].[Au].c1ccc([PH+](c2ccccc2)c2ccccc2)cc1.c1ccc([PH+](c2ccccc2)c2ccccc2)cc1 | 25.3 | 60.6 | 15.2 µM | 41.1 | 16.6 | 31.9 | 3.55 µM and 22.2 µM | > 100 | 53.5 µM | > 100 | 11.6 µM | > 100 µM | 1.6 µM and 4.03 µM | 5.53 µM and 16.6 µM | 11.8 µM | 29.3 | 2.38 µM and 10.4 µM | 33.4 | 40.4 | > 100
O=C(O)C(Cl)Cl | > 10000 | > 10000 | 7270 µM and > 7660 µM | > 10000 | > 10000 | > 10000 | 6710 µM and > 10000 µM | > 10000 | 7200 µM and > 10000 µM | > 10000 | 2090 µM and > 6870 µM | 5010 µM and > 9340 µM | 5690 µM and > 10000 µM | > 10000 µM | 6680 µM and > 10000 µM | > 10000 | > 10000 µM | > 10000 | > 10000 | > 10000
CCOC(=O)n1cc(C2=C(c3ccc(OC)c(OC)c3)COC2=O)c2ccccc21 | 0.0522 | 0.94 | 0.0279 µM | 0.0851 | 13.5 | > 91.5 | 0.0436 µM | > 100 | 0.0364 µM | > 100 | 0.0632 µM | > 100 µM | 0.0625 µM | > 100 µM | 0.0408 µM | > 100 | 0.031 µM | 0.156 | 0.817 | > 100
O=C1NC(=NCc2ccccc2)S/C1=C\c1ccc2ncccc2c1 | > 25 | > 25 | > 25 µM | > 25 | > 25 | > 25 | > 25 µM | > 25 | > 25 µM | > 25 | > 25 µM | > 25 µM | > 25 µM | > 25 µM | > 25 µM | > 25 | > 25 µM | > 25 | > 25 | > 25
Cc1cc(Nc2ccc(C)c(Cl)c2)n2nc(C(F)(F)F)nc2n1 | 23.5 | 70.1 | 22.1 µM | 66.2 | 31.2 | 84.8 | 19.6 µM | 50.1 | 26.6 µM | > 100 | 14.1 µM | 33.4 µM | 18.8 µM | 40 µM | 23.6 µM | > 100 | 19.1 µM | 39 | 29.9 | 96.7
S=P1(Oc2ccccc2)NNP2(=NP(N3CC3)(N3CC3)=NP(N3CC3)(N3CC3)=N2)NN1 (stereo not given) | – | > 100 | – | > 100 | – | > 100 | – | > 100 | – | > 100 | – | > 100 µM | – | > 100 µM | – | > 100 | – | > 100 | – | > 100
O=[N+]([O-])c1cc([N+](=O)[O-])c(C(F)(F)F)cc1NN=C(c1ccc(O)cc1)c1ccc(O)cc1 | 2.15 | 5.33 | 3.12 µM | 11.8 | 6.06 | 33.4 | 2.07 µM | 4.6 | 3.33 µM | 12.1 | 3.15 µM | 13.3 µM | 2.67 µM | 9.54 µM | 2.84 µM | 11.7 | 2.01 µM | 4.45 | 4.25 | 14.6
CC(C)[C@@H]1NC(=O)[C@]2(C)CSC(=N2)c2ccnc(c2)CNC(=O)C[C@@H](/C=C/CCS)OC1=O | 0.717 | 2.41 | 0.513 µM | > 100 | 0.178 | 1.64 | 0.0746 µM | 0.552 | 0.242 µM | 1.57 | 1.56 µM | 23.1 µM | 0.911 µM | > 28 µM | 9.1 µM | > 100 | 0.0832 µM | > 65.5 | 0.0354 | 0.197
O=C1C(C(Nc2ccccc2)c2ccccc2)=C([O-])c2ccccc21.O=C1C(C(Nc2ccccc2)c2ccccc2)=C([O-])c2ccccc21.[Cu+2] (stereo not given) | 32.1 | > 100 | 19.6 µM | > 100 | > 100 | > 100 | 50.6 µM | > 100 | 33.1 µM | > 100 | 32.2 µM | > 100 µM | 48.3 µM | > 100 µM | 52.4 µM | > 100 | 30.6 µM | > 100 | 8.38 | 63
O=C1OCC2=C1C(c1cccc(Br)c1)c1cc3c(cc1N2CCO)OCCO3 (stereo not given) | 0.079 | 0.371 | 0.0452 µM | 0.362 | 0.101 | 16.9 | 0.022 µM | > 23.7 | 0.0507 µM | 0.233 | 0.127 µM | 36.5 µM | 0.0695 µM | 3.66 µM | 0.0766 µM | > 50 | 0.051 µM | 0.46 | 0.067 | 4.04
C/C=C/[C@@H]1O[C@@H]2COC(=O)C2=C[C@@H]1O | 2.78 | > 19.6 | 10.6 µM | > 100 | 6.43 | 20.5 | 17.5 µM | 34.6 | 5.73 µM | 46 | 4.21 µM | > 51.6 µM | 6.79 µM | 21.1 µM | 16.9 µM | 39.8 | 2.78 µM | 8.14 | 25.9 | > 58.4
C[C@@H]1CC[C@H]2C(C)(C)[C@H]3C[C@@]12CC[C@@]3(C)O | – | > 100 | – | 61.9 | – | > 100 | – | > 100 | – | > 100 | – | > 100 µM | – | > 100 µM | – | > 100 | – | > 100 | – | > 100
